Test [1] deals with human recombinant 5-HT2A receptor (Homo sapiens (Human), UniProt P28223). Briefly: Determination of Ki value at 5-HT2A receptor ([3H]-Ketanserine radioligand binding). Particulars: [3H]-Ketanserine 1.75 nM, average of three independent experiments. The procedure:
Determination of Ki Value at 5-HT2A Receptor
Compound was tested according to the following procedures.
Receptor source: Recombinant mammalian cells
Radioligand: [^3H]-Ketanserine (47.3 Ci/mmol)
Final ligand concentration—[1.75 nM]
Non-Specific Ligand: 0.1 mM 1-Naphthylpiperazine (1-NP)
Reference compound: 1-Naphthylpiperazine (1-NP)
Positive control: 1-Naphthylpiperazine (1-NP)
Incubation conditions: Reactions were carried out in 67 mM Tris-HCl (pH 7.4) for 4 hours at 37° C. The reaction was terminated by rapid vacuum filtration onto the glass fiber filters. Radioactivity trapped onto the filters was determined and compared to the control values in order to ascertain any interactions of the test compound(s) with the cloned serotonin 5-HT2A binding site. • Reference: Methods in Molecular Biology, 2002, 190, 31-49
Compounds 1, 2 and 3 bind weakly to 5-HT2A receptor when tested by the in-vitro radioligand binding technique on human recombinant 5-HT2A receptor. The Ki values tabulated below are average of three independent experiments.

The test system of test [2] is Male Wistar rats. Briefly: Evaluation of theta modulation in dorsal hippocampus of anesthetized male Wistar rats. The test is classed as in vivo, rat. Particulars: memantine 1 mg/kg i.v. alone or 30 min after compound 1 1 mg/kg i.v. An excerpt: […]. Academic Press, New York Results:
The subject of test [3] is Male Wistar rats. Briefly: Object recognition task model. In kind it is in vivo, rat. The conditions noted are these: choice trial T2, 24 hours after T1; compared to the vehicle treatment. The procedure:
Four animals were housed in each cage. […] Water was provided ad libitum throughout the experiment. […] Rats received vehicle or test compounds or memantine or test compound and memantine, before familiar (T1) and choice (T2) trials. […] During the T1 and T2 trial, explorations of each object (defined as sniffing, licking, chewing or having moving vibrissae whilst directing the nose towards the object at a distance of less than 1 cm) were recorded using stopwatch.

The subject of test [4] is Male Wistar rats. The test can be described thus: Evaluation of acetylcholine modulation in ventral hippocampus of male Wistar rats (microdialysis). In kind it is in vivo, rat. The conditions noted are these: memantine 1 mg/kg s.c. alone or with compound 1 3 mg/kg p.o.; combination compared to memantine alone. The text has this:
Evaluation of Acetylcholine Modulation in Ventral Hippocampus of Male Wistar Rats Experimental Procedure:
Male Wistar rats (240-300 g body weight) were stereotaxically implanted with a microdialysis guide cannula in ventral hippocampus (AP: −5.2 mm, ML: +5.0 mm, DV: −3.8 mm) under isoflurane anesthesia. Co-ordinates were taken according to atlas for the rat brain (Paxinos and Watson 2004) with reference points taken from bregma and vertical from the skull. The rats were allowed to recover individually for four-five days in a round bottom Plexiglas bowl with free access to feed and water.
After surgical recovery of 4-5 days, male Wistar rats were connected to dual quartz lined two-channel liquid swivel (Instech, UK) on a counter balance lever arm, which allowed unrestricted movements of the animal. […]
Acetylcholine in dialysate was quantified using LC-MS/MS method in the calibration range of 0.099 nmol/L-70.171 nmol/L.
All microdialysis data for acetylcholine was plotted as percent change from mean dialysate basal concentrations with 100% defined as the average of five pre-dose values. […] Area under the curve (AUC) values for percent change in acetylcholine levels were calculated and the statistical significance between the mean AUC value were compared against memantine treatment using one-way ANOVA followed by Dunnett's test. […]

Where a name gives a salt, the structure may show the parent alone. Bounds are passed on as bounds.

By Ki is commonly meant the dissociation constant of the complex between target and ligand, obtained from inhibition or displacement. With `COc1ccc2c(c1)c(CN1CCN(C)CC1)cn2S(=O)(=O)c1ccc(C(C)C)cc1` [Compound 3, 1-[(4-Isopropylphenyl)sulfonyl]-5-methoxy-3-[(4-methyl-1-piperazinyl)methyl]-1H-indole dihydrochloride], the Ki in test [1] stood at 926 ± 317 nM.
For `CC12CC3CC(C)(C1)CC(N)(C3)C2` [memantine], the “change in hippocampal theta power” value with Male Wistar rats [2] is recorded as “no change”. The discriminative index result with Male Wistar rats [3] was “No significant increase”. The “change in hippocampal acetylcholine levels” value with Male Wistar rats [4] is “moderate change”.
With `COc1ccc2c(c1)c(CN1CCN(C)CC1)cn2S(=O)(=O)c1ccccc1Br` [Compound 1, 1-[(2-Bromophenyl)sulfonyl]-5-methoxy-3-[(4-methyl-1-piperazinyl)methyl]-1H-indole dimesylate monohydrate], the Ki in test [1] was 2510 ± 377 nM.
The same measure, in the same setting: for `COc1ccc2c(c1)c(CN1CCN(C)CC1)cn2S(=O)(=O)c1ccc(F)cc1` [Compound 2, 1-[(4-Fluorophenyl)sulfonyl]-5-methoxy-3-[(4-methyl-1-piperazinyl)methyl]-1H-indole dihydrochloride] the value was > 10000 nM.

Source of the values: patent US11116764B2, “Combination of pure 5-HT6 receptor antagonists with NMDA receptor antagonist” (SUVEN LIFE SCIENCES LIMITED, priority 2016, dated 2021).
